We go through one compound from patent US20080234345A1, “METHOD FOR REDUCING OR ALLEVIATING INFLAMMATION IN THE DIGESTIVE TRACT” (Gene Logic Inc., priority 2006, published 2008).

Experiment [1] has as its system DSS-induced colitis in Balb/c mice. Kind of experiment: DSS-induced histological effects in colon of Balb/c mice (Example 6). Format: in vivo. On the procedure:
A study was designed with five groups of Balb/c mice: naïve control, DSS followed by vehicle, DSS followed by dexamethasone 3 mg/kg/day, DSS followed by GL1001 10 mg/kg/day, and DSS followed by GL1001 100 mg/kg/day. Administration of DSS was via drinking water (DSS 5% in water), from day 0 to day 7 of the study. […] Administration of vehicle, dexamethasone and GL1001 was subcutaneous, once daily, from day 7 until termination of the study (day 14).
At termination of the study, samples from proximal, transverse and distal portions of the colon of each animal were collected for histological analysis, which included: • (a) inflammation score (0-5), based on leukocyte infiltration in mucosa and submucosa, crypt abcess and edema; • (b) glandular score (0-5), based on crypt destruction (crypts function to produce mucin and generate epithelium); and • (c) erosion score (0-5), based on integrity of epithelium or degree of ulceration thereof. A total histopathological score was obtained by adding the scores from (a), (b) and (c) above.

In experiment [2] the test system is NF-κB dependent transcription. The experiment is described as follows: In vivo LPS induced NF-κB dependent transcription in NF-κB::Luc mice, abdominal imaging. The source says:
More particularly, transgenic NF-κB::Luc mice were generated using three NF-κB response elements from the Igκ light chain promoter fused to a firefly luciferase gene as described by Carlsen et al. (2002) J. Immunol. 168:1441-1446. Pronuclear microinjection of purified construct DNA was used to generate transgenic founders in the C57BL/6 XCBA/J background. Founders were subsequently back crossed to the C57BL/6 albino background. All experimental protocols were approved by the Institutional Animal Care and Use Committee and conform to the ILAR guide for the care and used of laboratory animals. For in vivo imaging, NF-κB::Luc mice were injected intraperitoneally with luciferin (150 mg/kg) 10 minutes before imaging, anesthetized (using 1-3% isoflurane) and placed into a light-tight camera box. […] Signal data were also quantitated and archived using the Living Image® software. Photons of light were quantitated using an oval region of interest (ROI) of varying sizes depending on the procedure, as described further below.
GL1001 was further tested for in vivo anti-inflammatory activity by examining its effects on bacterial LPS induced NF-κB dependent transcription, in NF-κB::Luc mice. […] Mice were subjected to quantitative abdominal imaging at 2, 4 and 6 h following LPS administration, as described above. […] Luciferase signal was quantitated from several regions of interest. […]

Experiment [3] relates to activator protein-1 (AP-1). Kind of experiment: Basal in vivo reporter luciferase expression in AP-1::Luc mice. The conditions noted are these: AP-1::Luc mice (data not shown).
Experiment [4] concerns DSS-induced colitis in Balb/c mice. The experiment is described as follows: DSS-induced colitis in Balb/c mice (Example 7). It is filed as in vivo. The conditions noted are these: s.c. b.i.d., GL1001 300 mg/kg. Here is the method: A study was designed with six groups of Balb/c mice: naïve control, DSS followed by vehicle, DSS followed by GL1001 30 mg/kg/day, DSS followed by GL1001 100 mg/kg/day, DSS followed by GL1001 300 mg/kg/day, and DSS followed by sulfasalazine 150 mg/kg/day. Administration of DSS was via drinking water, from day 1 to day 6 of the study. […] Administration of vehicle, GL1001 and sulfasalazine was subcutaneous, twice daily, from day 6 until termination of the study (day 16).
Body weight of each animal was measured at days 1, 3 and 5 (pre-initiation of GL1001 or sulfasalazine treatment) and at days 7, 9, 11 and 13 (post-initiation of GL1001 or sulfasalazine treatment). On these same days, disease activity measurements were recorded, including: • (a) rectal prolapse (0=no prolapse, 1=partial prolapse, 2=moderate prolapse, 3=full prolapse); • (b) stool consistency (0=solid pellet, 1=semi-solid, 2=soft stool, 3=diarrhea); and • (c) fecal occult blood (0=no blood present, 1=occult blood, 2=gross blood).
At termination of the study, colon length was determined and histological analysis was conducted as in Example 6.

Experiment [5] has as its system NF-κB dependent transcription. The experiment is described as follows: LPS induced NF-κB dependent transcription in extracted organs of NF-κB::Luc mice (luciferase lysate assay). Format: in vivo. To be noted: GL1001 30 mg/kg, LPS 0.5 mg/kg, vs LPS alone. The source says: For luciferase assays, organs were extracted and snap frozen in liquid nitrogen. AII tissue samples were placed in lysis buffer with inhibitors (Passive Lysis Buffer (Promega) and Complete Mini Protease Inhibitor Cocktail (Roche, Indianapolis, Ind.)), and were homogenized using a tissue homogenizer (Handishear, Hand-held homogenizer, VirTis, Gardiner, N.Y.). Tissue homogenates were centrifuged and clarified lysates were used for luminometer assays and western blots. For the luminometer assays, Luciferase Assay Substrate (Luciferase Assay System, Promega) was prepared as indicated by the manufacturer and placed in disposable cuvettes. […] Background luminescence readings were obtained and the background readings were subtracted from the luminescent data. Protein concentrations were determined using the BCA Protein Assay Kit (Pierce, Rockford, Ill.) following the manufacturer's protocols and analyzed using a VERSAmax tunable microplate reader and associated Softmax Pro version 3.1.2 software (Molecular Devices, Sunnyvale Calif.). The luminescence for each of the protein lysates was calculated as arbitrary units of light per microgram of protein. […]
GL1001 was further tested for in vivo anti-inflammatory activity by examining its effects on bacterial LPS induced NF-κB dependent transcription, in NF-κB::Luc mice. […] Luciferase signal was quantitated from several regions of interest. […]

Where [6] appears, read: GL1001 100 mg/kg/day s.c. once daily.

On to `CC(C)C[C@H](N[C@@H](Cc1cncn1Cc1cc(Cl)cc(Cl)c1)C(=O)O)C(=O)O` [GL1001, (S,S)-2-[1-carboxy-2-[3-(3,5-dichlorobenzyl)-3H-imidazol-4-yl]-ethylamino]-4-methylpentanoic acid], for which the histological effect entry in experiment [1] (GL1001 10 mg/kg/day s.c.) is “No significant histological effect”. Besides, in experiment [1] (GL1001 100 mg/kg s.c. once daily, one animal), the “micrograph of distal colon section (FIG. 14)” value was “Inflammation and gland loss are mild, and no erosion is seen”. In addition, in experiment [1] (setting [6]), the “erosion score, distal colon” value was “significantly reduced”; the “glandular score, distal colon” value was “significantly reduced”; the “inflammation score, distal colon” value was “significantly reduced”; the “total histopathological score, distal colon” value is recorded as “significantly reduced”. The “disease activity (based on fecal samples)” value in experiment [1] (s.c. once daily day 7-14, dexamethasone 3 mg/kg/day, GL1001 10 and 100 mg/kg/day) is recorded as “No significant improvement”. Moreover, in experiment [2] (GL1001 30, 100, 300 mg/kg s.c. 1 hour before LPS i.v. (FIG. 4)), the “LPS induced NF-κB signaling response, abdominal region” value is recorded as “significantly reduced”. The “LPS induced NF-κB signaling” value in experiment [2] (at 30 and 100 mg/kg, dose range 3-100 mg/kg (FIG. 5)) was “significantly reduced”. In experiment [3], the “basal in vivo levels of reporter luciferase expression” value was “no significant effect”. Further, in experiment [4] (day 7, sulfasalazine 150 mg/kg), the fecal occult blood result is reported as “reduces” and the stool consistency result is given as “reduces”. In experiment [4] (day 9, sulfasalazine 150 mg/kg), the percentage weight loss entry is listed as “reduces” and the rectal prolapse result was “reduces”. For the same compound, the “distal colon erosion score” value in experiment [4] is “reduces”. Moreover, in experiment [4] (sulfasalazine 150 mg/kg), the “distal colon crypt score” value is given as “reduces”, the “distal colon inflammation score” value is listed as “reduces”, the “distal colon total histopathology score” value is “reduces” and the “reduction in colon length” value is given as “inhibits reduction”. Moreover, in experiment [5], the “LPS induced NF-κB signaling in pancreas and uterus, or any other organ analyzed” value was “no statistically significant decrease”; the “reduction of LPS induced NF-κB-dependent transcription in stomachs” value is on record as “about 37 fold”.
